Earlier results as cited in US20210087552A1, “Methods, Compositions, and Systems for Classification of Genetic Variants of Unknown Significance” (Laboratory Corporation of America Holdings, priority 2019, published 2021).

Columns and labels:
[1] = tested on: individual mutations in ABL1, ASXL1, BRAF, CSF3R, DNMT3A, EZH2, FLT3, IDH2, JAK2, KIT, KRAS, NF1, NRAS, PDGFRA, PML PTPN11, and TET2
[2] = tested on: individual mutations in ABL1, ASXL1, BRAF, CDKN2A, CEBPA, CSF3R, DNMT3A, EZH2, FLT3, IDH1, IDH2, JAK2, KIT, KMT2A, KRAS, NF1, NPM1, NRAS, PDGFRA, PML PTPN11 …

Structure (SMILES)	mutation associated with resistance to agent [1]	mutation associated with resistance to chemotherapeutic agent [2]
Cc1cn(-c2cc(NC(=O)c3ccc(C)c(Nc4nccc(-c5cccnc5)n4)c3)cc(C(F)(F)F)c2)cn1 [nilotinib]	resistance	
Nc1ccn([C@@H]2O[C@H](CO)[C@@H](O)[C@@H]2O)c(=O)n1 [cytarabine]		resistance
CC(C)(C)c1nc(-c2cccc(NS(=O)(=O)c3c(F)cccc3F)c2F)c(-c2ccnc(N)n2)s1 [dabrafenib]		resistance
